Test results reported in US5892071A, “Cationic transport reagents” (The Reagents of The University of California, priority 1995, dated 1999).

Legend:
[1] = test system: NIH 3T3 fibroblasts; assay: Hydrophobic and polar domain transfection analysis of PolyGum derivatives (luciferase specific activity, pGL3I+); type: cell-based, Murine; settings: for transfection effectiveness ranking among methoxy PolyGum derivatives: 1 microgram plasmid DNA pGL3I+, 48 hours (FIG. 9)
Experimental: Transfection activity was measured using the luciferase assay. Luciferase assays were performed with a luciferase assay kit (purchased from Analytical Luminescence Laboratories) using a Monolight 2010 luminometer (Analytical Luminescence Laboratories, San Diego, Calif.) according to the manufacturer's instructions. The media was removed from the transfected cells via aspiration. 0.5 mL of luciferase buffer/well was added, and the cells were placed on ice for 15 min. Luciferase light emissions from 100 μl of the lysate were measured using the luminometer.
Shown in FIG. 9 are hydrophobic and polar domain transfection results for various synthesized PolyGum derivatives. In the tests, 1.0×10^5 NIH 3T3 fibroblasts were plated 24 hours prior to transfection. Cell lysates were obtained 48 hours after transfection and assayed for luciferase specific activity. The data presented in FIG. 9 corresponds to the ability of the subject cationic lipid to mediated delivery of 1 microgram of plasmid DNA (pGL3I+).

[2] = test system: NIH 3T3 cells; assay: Luciferase transfection assay (pCMVL plasmid), NIH 3T3 cells; type: cell-based, Murine
Experimental: NIH 3T3 cells were grown in Dulbecco's modified Eagles medium (DMEM)+10% fetal calf serum. The DNA plasmid pCMVL was prepared by standard methods and used as a 369 ng/μl solution in TE, pH=7.6. The luciferase reporter plasmid pCMVL was prepared at UC Davis, and consists of the P. pyralis luciferase cDNA subcloned into the plasmid pRc/CMV (Invitrogen).
Multilamellar and small sonicated vesicles were prepared by addition of the cationic lipid DOHME together with DOPE, both as solutions in chloroform, to a 5 mL sample vial. The chloroform was removed via rotary evaporation with the water bath set at a constant temperature of 37° C. The resulting thin lipid films were placed under high vacuum overnight to insure that all traces of solvent had been removed. The lipid mixture was resuspended using distilled water ([…] total lipid/1 mL water) and vortex mixed to give a suspension of MLVs. This cloudy suspension was sonicated for fifteen minutes using a bath sonicator until a clear suspension containing SVs was obtained.
Sequential addition of DMEM (with or without 10% fetal calf serum), pCMVL plasmid (for n=4, 4 μg), and liposome formulation into a 2 mL Eppendorf tube gave a total volume of 800 μl. The relative amount of liposome:pCMVL plasmid used was determined by the desired cationic lipid:DNA phosphate charge ratio. The mixing of these substances was followed by thorough vortexing.
Usually, 24 well tissue culture plates containing 5.0×10^4 cells/well rapidly dividing adherent NIH 3T3 cells per well were transfected. The growth media was removed via aspiration and the cells were washed once with 0.5 mL PBS/well. […]
Transfection activity was measured using the luciferase assay. Luciferase assays were performed with a luciferase assay kit (purchased from Analytical Luminescence Laboratories) using a Monolight 2010 luminometer (Analytical Luminescence Laboratories, San Diego, Calif.) according to the manufacturer's instructions. […] Luciferase light emissions from 100 μl of the lysate were measured using the luminometer.

[3] = test system: transfected cells; assay: Alamar Blue toxicity assay; type: cell-based
Experimental: Usually, 24 well tissue culture plates containing 5.0×10^4 cells/well rapidly dividing adherent NIH 3T3 cells per well were transfected. The growth media was removed via aspiration and the cells were washed once with 0.5 mL PBS/well. A 200 μl aliquot of liposome-DNAcomplex was added to each well and the cells were allowed to incubate for 4 hr. at 37° C. If desired, at this time, 1 mL of DMEM+10% fetal calf serum/well was added and the cells were allowed to incubate for an additional 48 hr, after which assays of toxicity and/or efficacy were performed. Equivalent procedures were utilized for the DU-145 cells.
Alamar blue (Alamar Biosciences, Sacramento, Calif.), was diluted in cell culture media to 10%, added to cells, and incubated for up to two hours. Reduced dye was quantitated using a CytoFluor 2300 fluorescence plate reader with a 530 nm excitation filter and a 590 nm emission filter. Values expressed represent fluorescence less background. The same transfected cells can subsequently be assayed for reporter protein activity after Alamar Blue analysis.

## CCCCCCCCCCCC(=O)OC(C[N+](C)(C)CCOC)C(C[N+](C)(C)CCOC)OC(=O)CCCCCCCCCCC (racemic) [DL-PG-Me]
[1]
  transfection effectiveness ranking among methoxy PolyGum derivatives: least effective in transfection

## CCCCCCCCCCCCCC(=O)OC(C[N+](C)(C)CCOC)C(C[N+](C)(C)CCOC)OC(=O)CCCCCCCCCCCCC (centres unmarked) [DM-PG-Me]
[1]; DM-PG-Me versus DM-PG-OH (FIG. 9)
  transfection efficiency, methoxy versus non-methoxy form: more efficient in transfection than the non-methoxy form

## CCCCCCCCCCCCCCCC(=O)OC(C[N+](C)(C)CCOC)C(C[N+](C)(C)CCOC)OC(=O)CCCCCCCCCCCCCCC (centres unmarked) [DP-PG-Me]
[1]
  transfection effectiveness ranking among methoxy PolyGum derivatives: most effective in transfection

## CCCCCCCC/C=C\CCCCCCCC(=O)OC(C[N+](C)(C)CCO)C(C[N+](C)(C)CCO)OC(=O)CCCCCCC/C=C\CCCCCCCC.[I-].[I-] (centres unmarked) [PolyGum, N,N,N',N'-tetramethyl-N,N'-bis(2-hydroxyethyl)-2,3-di(oleoyloxy)-1,4-butanediaminium iodide]
[2]; MLV, serum-free versus 10% calf serum (FIG. 3)
  effect of serum on PolyGum (MLV) mediated transfection: greatly increased transfection is found with serum-free conditions than in the presence of 10% calf serum
[2]; SV, serum-free (FIG. 5)
  efficiency of transfection as mole ratio of DOPE to PolyGum is increased: the efficiency of transfection is lowered in a generally linear fashion
[2]; other transfection conditions, with serum
  effect of serum on PolyGum mediated transfection under other transfection conditions: little change is noted with serum transfection
[3]; PolyGum MLV formulation
  toxicity versus LIPOFECTIN and several other amine containing vesicles: less toxicity
[3]; PolyGum SV formulation
  toxicity versus LIPOFECTIN and several other amine containing vesicles: less toxicity
